Blank lines part the entries; values can stand above or below the compound they belong to.
Experiments:
SHP-77 = assay: Inhibition of proliferation of small cell lung cancer cells, CellTiter-Glo; type: cell-based; conditions: Homo sapiens, SHP77, 120 h; SHP-77, cultured for 5 days
Procedure: Specifically, the following test was performed to evaluate the inhibitory activity of the compound according to the present invention against the cell proliferation in the SCLC cells.
To check an inhibitory ability of cell growth in one SCLC cell line, a test was performed as follows. Cells were seeded in 180 μL of a culture broth at a density of 2,000 to 3,000 cells/well in a white clear bottom 96-well plate (Corning) according to the growth ability of each cell, and then cultured for 24 hours under conditions of 5% CO2 and 37° C. Thereafter, the compound was prepared by diluting a 10 mM stock solution three-fold with 100% DMSO at a total of 12 concentrations so that a peak concentration of the compound was in a range of 10 mM to 0.05 μM, and the diluted compound was then diluted in each cell culture medium so that a final concentration of the compound was in a range of 100 μM to 0.5 nM. 20 μL of a diluted solution diluted with a medium was added to the cell solution in which cells were seeded in the 96-well plate on the previous day so that a final concentration of the diluted solution was in a range of 10 μM to 0.05 nM. Each of the cells was cultured for 5 days. To check cell viability, a mixture provided in aCellTiter-Glo® Luminescent Cell Viability Assay Kit (Promega) was added to each of the cultured cell media, and cultured for another 10 minutes under a condition of 37° C. Then, a degree of luminescence (fluorescence) was measured. A degree of inhibition of the cell growth according to the treatment concentration of each of the compounds was calculated based on the fluorescence of the solvent control cells which were not treated with the compound. In this case, the concentration of each of the compounds inhibiting 50% of the cell growth was determined to be a GI50 (nM) value, and calculated using Prism (Version 7.01; GraphPad) software.

TTK = target: T1, TTK (Homo sapiens, UniProt P33981); assay: TTK enzyme activity, ADP-Glo kinase assay; type: biochemical; design: purchased SignalChem T20-10G; conditions: purified human TTK, ATP 10 μM, 25° C., 2 hours
T1 sequence (P33981 1-857): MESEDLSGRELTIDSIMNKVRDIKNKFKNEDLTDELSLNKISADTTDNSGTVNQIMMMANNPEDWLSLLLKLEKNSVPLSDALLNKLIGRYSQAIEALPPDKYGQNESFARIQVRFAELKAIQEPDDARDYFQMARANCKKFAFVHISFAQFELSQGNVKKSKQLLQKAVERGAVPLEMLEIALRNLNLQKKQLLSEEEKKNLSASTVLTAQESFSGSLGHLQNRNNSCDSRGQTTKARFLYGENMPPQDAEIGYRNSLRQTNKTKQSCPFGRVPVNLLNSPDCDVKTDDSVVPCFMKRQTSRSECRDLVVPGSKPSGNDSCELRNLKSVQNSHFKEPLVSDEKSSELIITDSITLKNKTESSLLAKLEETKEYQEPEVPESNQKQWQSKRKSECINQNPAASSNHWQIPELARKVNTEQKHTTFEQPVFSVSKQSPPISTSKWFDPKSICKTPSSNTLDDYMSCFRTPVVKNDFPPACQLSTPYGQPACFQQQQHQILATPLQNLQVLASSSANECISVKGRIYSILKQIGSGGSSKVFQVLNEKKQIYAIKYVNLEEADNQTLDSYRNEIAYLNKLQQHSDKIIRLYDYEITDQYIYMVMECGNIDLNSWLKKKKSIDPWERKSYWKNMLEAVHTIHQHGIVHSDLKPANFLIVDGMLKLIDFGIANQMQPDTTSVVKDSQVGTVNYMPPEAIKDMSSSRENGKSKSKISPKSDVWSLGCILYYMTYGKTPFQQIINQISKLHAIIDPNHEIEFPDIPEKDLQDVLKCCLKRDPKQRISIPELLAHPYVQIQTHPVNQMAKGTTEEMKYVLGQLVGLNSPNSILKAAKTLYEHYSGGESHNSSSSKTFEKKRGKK
Summary of the method: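 Purified human TTK (25 ng) incubated with 10 μM ATP and substrate (0.2 μg) for 2 h at 25 °C in Tris-HCl pH 7.4, MgCl2, BSA, DTT buffer. ADP formation read by ADP-Glo; inhibition calculated against untreated solvent control.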

MDA-MB-231 cells = assay: Inhibition of proliferation of triple-negative breast cancer cells, CellTiter-Glo; type: cell-based; conditions: Homo sapiens, 120 h; MDA-MB-231, cultured for 5 days
Summary of the method: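 MDA-MB-231 cells pre-cultured 24 h (5% CO2, 37 °C), then exposed to compound for 5 days at 12 three-fold dilutions, final 10 μM to 0.05 nM. Viability read by CellTiter-Glo luminescence after 10 min at 37 °C; growth inhibition calculated relative to untreated solvent-control cells.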

Structure (SMILES): Cn1nccc1-c1ccc(Nc2nc(NC3CCOC(C)(C)C3)c3c(C#N)c[nH]c3n2)c2c1OCCO2 (stereo not drawn) [Example 109, 4-((2,2-dimethyltetrahydro-2H-pyran-4-yl)amino)-2-((8-(1-methyl-1H-pyrazol-5-yl)-2,3-dihydrobenzo[b][1,4]dioxin-5-yl)amino)-7H-pyrrolo[2,3-d] pyrimidine-5-carbonitrile]
GI50 (SHP-77): < 100 nM
IC50 (TTK): < 50 nM
GI50 (MDA-MB-231 cells): < 100 nM

Structure (SMILES): COc1cc(-c2ccnn2C)ccc1Nc1nc(C2CC2)c2c(C#N)c[nH]c2n1 [Example 111, 4-cyclopropyl-2-((2-methoxy-4-(1-methyl-1H-pyrazol-5-yl)phenyl)amino)-7H-pyrrolo[2,3-d] pyrimidine-5-carbonitrile]
GI50 (SHP-77): < 100 nM
IC50 (TTK): < 50 nM
GI50 (MDA-MB-231 cells): < 100 nM

Structure (SMILES): Cn1nccc1-c1ccc(Nc2nc(C3CC3)c3c(C#N)c[nH]c3n2)c2c1OCCO2 [Example 112, 4-cyclopropyl-2-((8-(1-methyl-1H-pyrazol-5-yl)-2,3-dihydrobenzo[b][1,4]dioxin-5-yl)amino)-7H-pyrrolo[2,3-d] pyrimidine-5-carbonitrile]
GI50 (SHP-77): < 100 nM
IC50 (TTK): < 50 nM
GI50 (MDA-MB-231 cells): 100 to 1000 nM

Structure (SMILES): COc1cc(-c2ccnn2C)ccc1Nc1nc(NC2CCCC2)c2cc[nH]c2n1 [Example 113, N^4-cyclopentyl-N^2-(2-methoxy-4-(1-methyl-1H-pyrazol-5-yl)phenyl)-7H-pyrrolo[2,3-d] pyrimidine-2,4-diamine]
GI50 (SHP-77): 100 to 1000 nM
IC50 (TTK): 50 to 200 nM
GI50 (MDA-MB-231 cells): 100 to 1000 nM

Structure (SMILES): COc1cc(-c2ccnn2C)ccc1Nc1nc(NC2CCOC(C)(C)C2)c2c(C#N)c[nH]c2n1 (stereo not drawn) [Example 115, 4-((2,2-dimethyltetrahydro-2H-pyran-4-yl)amino)-2-((2-methoxy-4-(1-methyl-1H-pyrazol-5-yl)phenyl)amino)-7H-pyrrolo[2,3-d] pyrimidine-5-carbonitrile]
GI50 (SHP-77): < 100 nM
IC50 (TTK): < 50 nM
GI50 (MDA-MB-231 cells): < 100 nM

Structure (SMILES): COc1cc(-c2cnn(C)c2)ccc1Nc1nc(NC2CCOCC2)c2c(C(F)(F)F)c[nH]c2n1 [Example 118, N^2-(2-methoxy-4-(1-methyl-1H-pyrazol-4-yl)phenyl)-N^4-(tetrahydro-2H-pyran-4-yl)-5-(trifluoromethy1)-7H-pyrrolo[2,3-d] pyrimidine-2,4-diamine]
GI50 (SHP-77): < 100 nM
IC50 (TTK): < 50 nM
GI50 (MDA-MB-231 cells): < 100 nM

Structure (SMILES): COc1cc(Nc2nc(NC3CCOCC3)c3c(C#N)c[nH]c3n2)ccc1-c1ccnn1C [Example 119, 2-((3-methoxy-4-(1-methyl-1H-pyrazol-5-yl)phenyl)amino)-4-((tetrahydro-2H-pyran-4-yl)amino)-7H-pyrrolo[2,3-d] pyrimidine-5-carbonitrile]
GI50 (SHP-77): < 100 nM
IC50 (TTK): < 50 nM
GI50 (MDA-MB-231 cells): < 100 nM

Structure (SMILES): COc1cc(-c2cnn(C)c2)c(F)cc1Nc1nc(NC2CCCC2)c2c(C#N)c[nH]c2n1 [Example 125, 4-(cyclopentylamino)-2-((5-fluoro-2-methoxy-4-(1-methyl-1H-pyrazol-4-yl)phenyl)amino)-7H-pyrrolo[2,3-d] pyrimidine-5-carbonitrile]
GI50 (SHP-77): 100 to 1000 nM
IC50 (TTK): < 50 nM
GI50 (MDA-MB-231 cells): < 100 nM

Second part, the compound after the results:

GI50 (SHP-77): < 100 nM
IC50 (TTK): < 50 nM
GI50 (MDA-MB-231 cells): < 100 nM
Structure (SMILES): COc1cc(-c2ccnn2C)ccc1Nc1nc(NC2CCC(F)(F)C2)c2c(C#N)c[nH]c2n1 (stereo not drawn) [Example 110, 4-((3,3-difluorocyclopentyl)amino)-2-((2-methoxy-4-(l-methyl-1H-pyrazol-5-yl)phenyl)amino)-7H-pyrrolo[2,3-d] pyrimidine-5-carbonitrile]

GI50 (SHP-77): 100 to 1000 nM
IC50 (TTK): < 50 nM
GI50 (MDA-MB-231 cells): 100 to 1000 nM
Structure (SMILES): Cn1nccc1-c1ccc(Nc2nc(NC3CCCC3)c3cc[nH]c3n2)c2c1OCCO2 [Example 114, N^4-cyclopentyl-N^2-(8-(1-methyl-1H-pyrazol-5-yl)-2,3-dihydrobenzo[b][1,4]dioxin-5-yl)-7H-pyrrolo[2,3-d] pyrimidine-2,4-diamine]

GI50 (SHP-77): < 100 nM
IC50 (TTK): < 50 nM
GI50 (MDA-MB-231 cells): < 100 nM
Structure (SMILES): Cn1nccc1-c1ccc(Nc2nc(NC3CCC(F)(F)C3)c3c(C#N)c[nH]c3n2)c2c1OCCO2 (stereo not drawn) [Example 116, 4-((3,3-difluorocyclopentyl)amino)-2-((8-(1-methyl-1H-pyrazol-5-yl)-2,3-dihydrobenzo[b][1,4]dioxin-5-yl)amino)-7H-pyrrolo[2,3-d] pyrimidine-5-carbonitrile]

GI50 (SHP-77): < 100 nM
IC50 (TTK): < 50 nM
GI50 (MDA-MB-231 cells): < 100 nM
Structure (SMILES): COc1cc(-c2nncn2C)ccc1Nc1nc(NC2CCOCC2)c2c(C(F)(F)F)c[nH]c2n1 [Example 117, N^2-(2-methoxy-4-(4-methyl-4H-1,2,4-triazol-3-yl)phenyl)-N^4-(tetrahydro-2H-pyran-4-yl)-5-(trifluoromethyl)-7H-pyrrolo[2,3-d] pyrimidine-2,4-diamine]

GI50 (SHP-77): 100 to 1000 nM
IC50 (TTK): 50 to 200 nM
GI50 (MDA-MB-231 cells): 100 to 1000 nM
Structure (SMILES): COc1cc(Nc2nc(NC3CCCC3)c3c(C#N)c[nH]c3n2)ccc1-c1ccnn1C [Example 120, 4-(cyclopentylamino)-2-((3-methoxy-4-(1-methyl-1H-pyrazol-5-yl)phenyl)amino)-7H-pyrrolo[2,3-d] pyrimidine-5-carbonitrile]

GI50 (SHP-77): < 100 nM
IC50 (TTK): < 50 nM
GI50 (MDA-MB-231 cells): < 100 nM
Structure (SMILES): COc1cc(Nc2nc(NC3CCCCC3)c3c(C#N)c[nH]c3n2)ccc1-c1ccnn1C [Example 121, 4-(cyclohexylamino)-2-((3-methoxy-4-(1-methyl-1H-pyrazol-5-yl)phenyl)amino)-7H-pyrrolo[2,3-d] pyrimidine-5-carbonitrile]

GI50 (SHP-77): < 100 nM
IC50 (TTK): < 50 nM
GI50 (MDA-MB-231 cells): < 100 nM
Structure (SMILES): COc1cc(-c2ccnn2C)c(F)cc1Nc1nc(NC2CCOCC2)c2c(C#N)c[nH]c2n1 [Example 122, 2-((5-fluoro-2-methoxy-4-(1-methyl-1H-pyrazol-5-yl)phenyl)amino)-4-((tetrahydro-2H-pyran-4-yl)amino)-7H-pyrrolo[2,3-d] pyrimidine-5-carbonitrile]

GI50 (SHP-77): 100 to 1000 nM
IC50 (TTK): 50 to 200 nM
GI50 (MDA-MB-231 cells): > 1000 nM
Structure (SMILES): COc1cc(-c2c(C)noc2C)c(F)cc1Nc1nc(NC2CCCCC2)c2c(C#N)c[nH]c2n1 [Example 123, 4-(cyclohexylamino)-2-((4-(3,5-dimethylisoxazol-4-yl)-5-fluoro-2-methoxyphenyl)amino)-7H-pyrrolo[2,3-d] pyrimidine-5-carbonitrile]

GI50 (SHP-77): < 100 nM
IC50 (TTK): < 50 nM
GI50 (MDA-MB-231 cells): < 100 nM
Structure (SMILES): COc1cc(-c2cnn(C)c2)c(F)cc1Nc1nc(NC2CCOCC2)c2c(C#N)c[nH]c2n1 [Example 124, 2-((5-fluoro-2-methoxy-4-(1-methyl-1H-pyrazol-4-yl)phenyl)amino)-4-((tetrahydro-2H-pyran-4-yl)amino)-7H-pyrrolo[2,3-d] pyrimidine-5-carbonitrile]

GI50 (SHP-77): > 1000 nM
IC50 (TTK): < 50 nM
GI50 (MDA-MB-231 cells): > 1000 nM
Structure (SMILES): COc1cc(-c2cnn(C)c2)c(F)cc1Nc1nc(NC2CCCCC2)c2c(C#N)c[nH]c2n1 [Example 126, 4-(cyclohexylamino)-2-((5-fluoro-2-methoxy-4-(1-methyl-1H-pyrazol-4-yl)phenyl)amino)-7H-pyrrolo[2,3-d] pyrimidine-5-carbonitrile]

Reference: US20230183243A1, “HETEROARYL DERIVATIVES AND PHARMACEUTICAL COMPOSITION COMPRISING SAME AS ACTIVE INGREDIENT” (VORONOI INC., priority 2019, published 2023)
